In US12161722B2, “Bifunctional heterocyclic compound having BTK degradation function via ubiquitin proteasome pathway, and use thereof” (KOREA RESEARCH INSTITUTE OF CHEMICAL TECHNOLOGY, priority 2021, dated 2024):

Tests used:
C481S BTK protein = molecular target: T1, C481S BTK protein (Homo sapiens, UniProt Q06187, C481S); experiment: BTK protein degradation assay (Western blotting), C481S BTK; format: cell-based; details: concentration range accounting for 50% degradation of C481S BTK protein, 293T BTK MUT (C481S) cells
T1 construct: expressed in transfected cells; host or cells: 293T BTK MUT (C481S) cells
Description: TMD-8, RAMOS, or 293T BTK MUT (C481S) cells were treated with the synthesized compounds and measured for intracellular BTK protein levels by Western blotting. The protocol of the experiment using TMD-8 cells is as follows.
The 12-well plates were treated as follows. A 10 mM stock was 1/10 diluted in series with DMSO ([…]) to form final concentrations of 10, 1, 0.1, 0.01, 0.001, and 0.0001 mM. The compounds with such concentrations were applied to cells, followed by harvesting the cells 24 hours later. For a negative control, a 1/10 dilution of DMSO in the medium (3 mL DMSO+27 mL medium) was used.
The 1-mL cell culture in each well was passed many times through a pipette and then transferred into a 1.5-mL microtube before centrifugation (500 g, 5 min, 4° C.). The supernatant was discarded and the cell pellet was washed with PBS. After centrifugation (500 g, 5 min, 4° C.) again, the supernatant was discarded and the cell pellet was taken.
A lysis buffer was prepared as follows. RIPA buffer (Biosesang, RC2038-050-00)+0.5 mM PMSF (SIGMA, P7626)+1×Protease/Phosphatase Inhibitor (Cell signaling, 5872S) was added in an amount […] per well and left for 30 minutes on ice (vortexing at 0 and 30 minutes) before sonication (5 cycles of pulse for 10 seconds and rest for 30 seconds, 70% amplification). The supernatant obtained by centrifugation (15000 g, 15 min, 4° C.) was transferred into a new microtube. Cells in each well of 96-well plates were 1/2 diluted with the RIPA buffer and incubated at 37° C. for 30 minutes with […] of a 50:1 mixture of BCA reagents A and B in BCA Protein Assay Kit (iNtRON, 21071). After being cooled for 10 minutes, the 96-well plates were measured for absorbance at 562 nm on the BioTek, SYNERGY H1 microplate reader. Samples were prepared by protein quantification based on the absorbance measurements and then boiled at 70° C. for 10 minutes. The sample buffer used in the case was prepared by mixing a NuPAGE or a Bolt 4× sample buffer (Invitrogen) and its 10× sample reducing agent depending on the gel to be used, and protein dilution was made in a RIPI buffer.
The samples were loaded in the same amount into a NuPAGE or Bolt Bis-tris 4-12% gradient gel and allowed to run therein (200 V, 35 minutes). The separated proteins were transferred onto a […] NC membrane, using Trans-blot Turbo (BIO-RAD) (1.3 A constant, 25V limit, 15 minutes). The membrane was blocked at room temperature for 1 hour with skim milk or Intercept Blocking Buffer (LI-COR, 927-60001):0.1% TBST=1:1. The membrane was incubated with Anti BTK Rabbit (1:1,000 in 5% skim milk/0.2% TBST, size: 77 kDa, Cell signaling Technology) at 4° C. overnight O/N or at room temperature for 2 hours and with Anti GAPDH Rabbit (1:10,000 in 5% BSA/0.2% TBST, size: 36 kDa, GENETEX) and Anti β-actin mouse (1:10,000 in 5% BSA/0.2% TBST, RT, size: 43 kDa, GENETEX) at room temperature for 1 or 3 hours. Then, the membrane was washed three times with 0.5% TBST for 5 minutes each time before incubation with the second antibody Anti-Rabbit IgG (1:5,000 in 5% Skim milk/TBST, CST), IRDye® 800CW Goat anti-Rabbit IgG Secondary Antibody (1:10,000 in 5% skim/TBST, RT 45 min), or IRDye® 680RD Goat anti-Mouse IgG Secondary Antibody (1:10,000 in 5% skim/TBST, RT 45 min) for 45 minutes at room temperature in a rocker. The membrane was washed five times with 0.5% TBST for 5 minutes in each time, followed by detection with LI-COR, Odyssey. In this regard, the detection proceeded, as it was, for house-keeping genes while using SuperSignal West Pico PLUS Chemiluminescent Substrate or SuperSignal West femto Maximum Sensitivity Substrate for BTK detection.
According to the concentration ranges of compounds accounting for 50% degradation of WT BTK protein and C481S BTK protein, the activities are expressed as +++(0.0001-0.01 μM), ++(0.01-1 μM), +(1-10 μM), −(>10 μM), and NT (not tested). […]

WT BTK protein = molecular target: T2, WT BTK protein (Homo sapiens, UniProt Q06187); experiment: BTK protein degradation assay (Western blotting), WT BTK; format: cell-based; details: concentration range accounting for 50% degradation of WT BTK protein, TMD-8 or RAMOS cells, 24 hours
T2 construct: measured for intracellular BTK protein levels by Western blotting; endogenous in cells; host or cells: TMD-8 or RAMOS cells
Method in brief: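 BTK levels were read by Western blotting (GAPDH and β-actin normalisers) in RIPA lysates of TMD-8 cells exposed to compounds for 24 h at 1×10^6 cells/mL. Results scored in ranges of the concentration producing 50% loss of WT BTK.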

T2 sequence (Q06187 whole entry): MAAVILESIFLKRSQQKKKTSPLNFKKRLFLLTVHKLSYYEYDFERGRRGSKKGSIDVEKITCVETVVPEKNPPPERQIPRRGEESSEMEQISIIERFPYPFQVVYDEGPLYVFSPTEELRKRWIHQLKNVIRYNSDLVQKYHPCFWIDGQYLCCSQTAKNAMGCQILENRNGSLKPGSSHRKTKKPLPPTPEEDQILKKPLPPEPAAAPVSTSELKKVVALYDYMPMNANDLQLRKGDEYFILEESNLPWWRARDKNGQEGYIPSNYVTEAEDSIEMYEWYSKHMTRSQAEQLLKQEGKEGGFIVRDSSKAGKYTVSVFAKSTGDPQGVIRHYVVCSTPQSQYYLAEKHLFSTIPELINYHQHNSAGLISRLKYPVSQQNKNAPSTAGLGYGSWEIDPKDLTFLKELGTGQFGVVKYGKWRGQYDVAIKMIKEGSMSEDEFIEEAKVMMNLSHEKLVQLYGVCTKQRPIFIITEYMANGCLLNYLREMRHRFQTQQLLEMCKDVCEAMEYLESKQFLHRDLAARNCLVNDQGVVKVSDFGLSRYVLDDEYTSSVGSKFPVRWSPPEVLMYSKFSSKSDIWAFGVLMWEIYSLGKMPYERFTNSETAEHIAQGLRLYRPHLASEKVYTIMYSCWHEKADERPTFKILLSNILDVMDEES
T1 sequence (Q06187 whole entry C481S): as the sequence (Q06187 whole entry) above, with C481S counted along it

Cc1cccc(C)c1Nc1nn(C)c2nc(Nc3ccc4c(c3)CN(C(=O)CCOCCOCCOCCOCCNC(=O)CNc3ccc5c(c3)C(=O)N(C3CCC(=O)NC3=O)C5=O)CC4)ncc12 (stereo not shown) [Compound 22, N-(15-(7-((3-((2,6-dimethylphenyl)amino)-1-methyl-1H-pyrazolo[3,4-d]pyrimidin-6-yl)amino)-3,4-dihydroisoquinolin-2 (1H)-yl)-15-oxo-3,6,9,12-tetraoxapentadecyl)-2-((2-(2,6-dioxopiperidin-3-yl)-1,3-dioxoisoindolin-5-yl)amino)acetamide]
DC50 (C481S BTK protein): > 10 µM | DC50 (WT BTK protein): 0.0001 to 0.01 µM

Cc1cccc(C)c1Nc1nn(C)c2nc(Nc3ccc4c(c3)CN(Cc3cn(CCOCCOCCNC(=O)CNc5cccc6c5C(=O)N(C5CCC(=O)NC5=O)C6=O)nn3)CC4)ncc12 (stereo not shown) [Compound 11]
DC50 (C481S BTK protein): > 10 µM | DC50 (WT BTK protein): 0.0001 to 0.01 µM

Cc1cccc(C)c1Nc1nn(C)c2nc(Nc3ccc4c(c3)CN(C(=O)CCCCCNc3cccc5c3C(=O)N(C3CCC(=O)NC3=O)C5=O)CC4)ncc12 (stereo not shown) [Compound 1, 4-((6-(7-((3-((2,6-Dimethylphenyl)amino)-1-methyl-1H-pyrazolo[3,4-d]pyrimidin-6-yl)amino)-3,4-dihydroisoquinolin-2 (1H)-yl)-6-oxohexyl)amino)-2-(2,6-dioxopiperidin-3-yl)isoindoline-1,3-dione]
DC50 (C481S BTK protein): > 10 µM | DC50 (WT BTK protein): 0.01 to 1 µM

Cc1cccc(C)c1Nc1nn(C)c2nc(Nc3ccc4c(c3)CN(C(=O)CCOCCOCCOCCOCCNc3ccc5c(c3)C(=O)N(C3CCC(=O)NC3=O)C5=O)CC4)ncc12 (stereo not shown) [Compound 15, 5-((15-(7-((3-((2,6-Dimethylphenyl)amino)-1-methyl-1H-pyrazolo[3,4-d]pyrimidin-6-yl)amino)-3,4-dihydroisoquinolin-2 (1H)-yl)-15-oxo-3,6,9,12-tetraoxapentadecyl)amino)-2-(2,6-dioxopiperidin-3-yl)isoindoline-1,3-dione]
DC50 (C481S BTK protein): 1 to 10 µM | DC50 (WT BTK protein): 0.0001 to 0.01 µM

Cc1cccc(C)c1Nc1nn(C)c2nc(Nc3ccc4c(c3)CN(C(=O)CCOCCOCCOCCOCCNc3cccc5c3C(=O)N(C3CCC(=O)NC3=O)C5=O)CC4)ncc12 (stereo not shown) [Compound 14]
DC50 (C481S BTK protein): > 10 µM | DC50 (WT BTK protein): 0.0001 to 0.01 µM

Cc1cccc(C)c1Nc1nn(C)c2nc(Nc3ccc4c(c3)CN(C(=O)[C@@H]3CCCN3C(=O)CNc3ccc5c(c3)C(=O)N(C3CCC(=O)NC3=O)C5=O)CC4)ncc12 (stereo partly drawn) [Compound 35, 5-((2-((S)-2-(7-((3-((2,6-Dimethylphenyl)amino)-1-methyl-1H-pyrazolo[3,4-d]pyrimidin-6-yl)amino)-1,2,3,4-tetrahydroisoquinoline-2-carbonyl)pyrrolidin-1-yl)-2-oxoethyl)amino)-2-(2,6-dioxopiperidin-3-yl)isoindoline-1,3-dione]
DC50 (C481S BTK protein): 0.01 to 1 µM | DC50 (WT BTK protein): 0.0001 to 0.01 µM

Cc1cccc(C)c1Nc1nn(C)c2nc(Nc3ccc4c(c3)CN(C(=O)[C@H]3CCCN3C(=O)CN3CCN(c5ccc6c(c5)C(=O)N(C5CCC(=O)NC5=O)C6=O)CC3)CC4)ncc12 (stereo partly drawn) [Compound 32, 5-(4-(2-((R)-2-(7-((3-((2,6-Dimethylphenyl)amino)-1-methyl-1H-pyrazolo[3,4-d]pyrimidin-6-yl)amino)-1,2,3,4-tetrahydroisoquinoline-2-carbonyl)pyrrolidin-1-yl)-2-oxoethyl)piperazin-1-yl)-2-(2,6-dioxopiperidin-3-yl)isoindoline-1,3-dione]
DC50 (C481S BTK protein): 1 to 10 µM | DC50 (WT BTK protein): 0.01 to 1 µM

Cc1cccc(C)c1Nc1nn(C)c2nc(Nc3ccc4c(c3)CN(CC3CCN(C(=O)CNc5ccc6c(=O)n(C7CCC(=O)NC7=O)nnc6c5)CC3)CC4)ncc12 (stereo not shown) [Compound 63, 3-(7-((2-(4-((7-((3-((2,6-Dimethylphenyl)amino)-1-methyl-1H-pyrazolo[3,4-d]pyrimidin-6-yl)amino)-3,4-dihydroisoquinolin-2 (1H)-yl)methyl)piperidin-1-yl)-2-oxoethyl)amino)-4-oxobenzo[d][1,2,3]triazin-3 (4H)-yl)piperidin-2,6-one]
DC50 (C481S BTK protein): 0.01 to 1 µM | DC50 (WT BTK protein): 0.0001 to 0.01 µM
